# Results: patent publication US11214594B2, “Antimicrobial peptide having synergistic antibacterial effect with antibiotics on multidrug resistant bacteria, and use thereof” (priority 2016, dated 2022)
# Where a SMILES comes first, the peptide text is derived from it. [ ]: non-standard residue; d: D form.
# Key:
# MDREC 1238 = format: cell-based, Escherichia coli; details: MDREC 1238; agent alone
# Procedure, shortened: (§1)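 Broth microdilution in MH medium: strains diluted to 2×10^6 CFU were mixed with equal volumes of twofold serial peptide dilutions in MH medium. MIC was taken as the lowest peptide concentration preventing bacterial growth.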
# B. subtilis = assay: microbe, parasite or virus in culture; format: cell-based, Bacillus subtilis
# Procedure, shortened: as §1
# E. coli [1] = assay: microbe, parasite or virus in culture; format: cell-based, Escherichia coli; details: 16 h
# Procedure, shortened: as §1
# MDREC 1229 [2] = assay: microbe, parasite or virus in culture; format: cell-based, Escherichia coli; details: MDREC 1229
# Procedure, shortened: as §1
# MDRAB 12035 = assay: MIC of antibiotic during combined treatment with antimicrobial peptide; format: cell-based, Acinetobacter baumannii
# Procedure, shortened: (§2)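 Strains in MH medium at 2×10^6 CFU/ml were mixed with peptide diluted stepwise (2:1) from its MIC, then antibiotic dilutions in MH medium were added to give the antibiotic MIC. The reversed set-up, peptide titrated against fixed antibiotic, gave the peptide MIC.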
# S. aureus = assay: microbe, parasite or virus in culture; format: cell-based, Staphylococcus aureus
# Procedure, shortened: as §1
# MDRPA 2002 = format: cell-based, Pseudomonas aeruginosa; details: MDRPA 2002; agent alone
# Procedure, shortened: as §1
# MDRPA 2003 = format: cell-based, Pseudomonas aeruginosa; details: MDRPA 2003; agent alone
# Procedure, shortened: as §1
# MDRST 8007 = assay: Minimal inhibitory concentration (MIC), single agent; format: cell-based, Salmonella typhimurium; details: agent alone
# Procedure, shortened: as §1
# A. baumannii = assay: MIC of antibiotic during combined treatment with antimicrobial peptide; format: cell-based, Acinetobacter baumannii; details: A. baumannii
# Procedure, shortened: (§3)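 Read-out is the MIC of each combined solution, obtained from MH-medium dilutions of antibiotic added well by well, with a reversed-condition run as well.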
# MRSA 3126 = format: cell-based, Staphylococcus aureus; details: MRSA 3126; agent alone
# Procedure, shortened: as §1
# MRSA 3114 = format: cell-based, Staphylococcus aureus; details: MRSA 3114; agent alone
# Procedure, shortened: as §1
# E. coli [3] = assay: MIC of antibiotic during combined treatment with antimicrobial peptide; format: cell-based, Escherichia coli; details: for Antibiotic MIC, Erythromycin / Antibiotic MIC, Linezolid / Antibiotic MIC, Vancomycin: E. coli
# Procedure, shortened: as §3
# S. epidermidis = assay: microbe, parasite or virus in culture; format: cell-based, Staphylococcus epidermidis
# Procedure, shortened: as §1
# MDREC 1229 [4] = assay: MIC of antibiotic during combined treatment with antimicrobial peptide; format: cell-based, Escherichia coli
# Procedure, shortened: as §2
# P. aeruginosa = assay: microbe, parasite or virus in culture; format: cell-based, Pseudomonas aeruginosa
# Procedure, shortened: as §1
# [5] = peptide treatment concentration 1 μg/ml
# [6] = peptide treatment concentration 2 μg/ml
# [7] = peptide treatment concentration 4 μg/ml
# [8] = peptide treatment concentration 6 μg/ml
# [9] = peptide treatment concentration 8 μg/ml
# [10] = peptide treatment concentration 16 μg/ml
# [11] = peptide treatment concentration 32 μg/ml
# [12] = peptide treatment concentration 64 μg/ml
# [13] = combined with peptide at 1 μg/ml
# [14] = combined with peptide at 2 μg/ml
# [15] = combined with peptide at 4 μg/ml
# [16] = combined with peptide at 6 μg/ml
# [17] = combined with peptide at 8 μg/ml
# [18] = combined with peptide at 16 μg/ml
# [19] = combined with peptide at 32 μg/ml
# [20] = combined with peptide at 64 μg/ml
smiles,measurement,setting,value
"CC[C@H](C)[C@H](NC(=O)[C@H](CCCCN)NC(=O)[C@H](Cc1c[nH]c2ccccc12)NC(=O)[C@@H](N)CCCNC(=N)N)C(=O)N[C@@H](Cc1ccccc1)C(=O)N[C@@H](CCCCN)C(=O)N[C@@H](CCCCN)C(=O)N[C@H](C(=O)N[C@H](CC(C)C)C(=O)N[C@@H](CCCCN)C(=O)N[C@@H](CC(C)C)C(=O)N[C@@H](CC(C)C)C(=O)N[C@@H](Cc1c[nH]cn1)C(=O)N[C@@H](CCCCN)C(=O)N[C@@H](Cc1ccccc1)C(=O)N[C@@H](CCCCN)C(=O)N[C@@H](CCCCN)C(=O)N[C@@H](Cc1ccccc1)C(N)=O)[C@@H](C)CC [PapMA-21, RWK IFK KIl KLL HKF KKF-NH2] (H-RWKIFKKI[dL]KLLHKFKKF-NH2; N-terminus assumed)",Minimal inhibitory concentration MIC,MDREC 1238,32 µg/mL
same,Minimal inhibitory concentration MIC,B. subtilis,>128 µg/mL
same,Minimal inhibitory concentration MIC,E. coli [1],32 µg/mL
same,Minimal inhibitory concentration MIC,MDREC 1229 [2]; agent alone,32 µg/mL
same,"Peptide MIC, peptide alone","MDREC 1229 [2]; peptide alone, no antibiotic",32 µg/mL
same,Erythromycin MIC during combined treatment with peptide,MDRAB 12035; [5],32 µg/mL
same,Linezolid MIC during combined treatment with peptide,MDRAB 12035; [5],>128 µg/mL
same,Vancomycin MIC during combined treatment with peptide,MDRAB 12035; [5],>128 µg/mL
same,Erythromycin MIC during combined treatment with peptide,MDRAB 12035; [6],32 µg/mL
same,Linezolid MIC during combined treatment with peptide,MDRAB 12035; [6],>128 µg/mL
same,Vancomycin MIC during combined treatment with peptide,MDRAB 12035; [6],>128 µg/mL
same,Erythromycin MIC during combined treatment with peptide,MDRAB 12035; [7],16 µg/mL
same,Linezolid MIC during combined treatment with peptide,MDRAB 12035; [7],64 µg/mL
same,Vancomycin MIC during combined treatment with peptide,MDRAB 12035; [7],128 µg/mL
same,Erythromycin MIC during combined treatment with peptide,MDRAB 12035; [8],4 µg/mL
same,Linezolid MIC during combined treatment with peptide,MDRAB 12035; [8],32 µg/mL
same,Vancomycin MIC during combined treatment with peptide,MDRAB 12035; [8],64 µg/mL
same,Erythromycin MIC during combined treatment with peptide,MDRAB 12035; [9],1 µg/mL
same,Linezolid MIC during combined treatment with peptide,MDRAB 12035; [9],16 µg/mL
same,Vancomycin MIC during combined treatment with peptide,MDRAB 12035; [9],32 µg/mL
same,Erythromycin MIC during combined treatment with peptide,MDRAB 12035; [10],0.5 µg/mL
same,Linezolid MIC during combined treatment with peptide,MDRAB 12035; [10],8 µg/mL
same,Vancomycin MIC during combined treatment with peptide,MDRAB 12035; [10],16 µg/mL
same,Erythromycin MIC during combined treatment with peptide,MDRAB 12035; [11],0 µg/mL
same,Linezolid MIC during combined treatment with peptide,MDRAB 12035; [11],0 µg/mL
same,Vancomycin MIC during combined treatment with peptide,MDRAB 12035; [11],0 µg/mL
same,Erythromycin MIC during combined treatment with peptide,MDRAB 12035; [12],0 µg/mL
same,Linezolid MIC during combined treatment with peptide,MDRAB 12035; [12],0 µg/mL
same,Vancomycin MIC during combined treatment with peptide,MDRAB 12035; [12],0 µg/mL
same,Minimal inhibitory concentration MIC,S. aureus,>128 µg/mL
same,Minimal inhibitory concentration MIC,MDRPA 2002,32 µg/mL
same,Minimal inhibitory concentration MIC,MDRPA 2003,32 µg/mL
same,Minimal inhibitory concentration MIC,MDRST 8007,64 µg/mL
same,"Antibiotic MIC, Erythromycin",A. baumannii; [13],32 µg/mL
same,"Antibiotic MIC, Linezolid",A. baumannii; [13],>128 µg/mL
same,"Antibiotic MIC, Vancomycin",A. baumannii; [13],>128 µg/mL
same,"Antibiotic MIC, Erythromycin",A. baumannii; [14],32 µg/mL
same,"Antibiotic MIC, Linezolid",A. baumannii; [14],>128 µg/mL
same,"Antibiotic MIC, Vancomycin",A. baumannii; [14],>128 µg/mL
same,"Antibiotic MIC, Erythromycin",A. baumannii; [15],8 µg/mL
same,"Antibiotic MIC, Linezolid",A. baumannii; [15],32 µg/mL
same,"Antibiotic MIC, Vancomycin",A. baumannii; [15],64 µg/mL
same,"Antibiotic MIC, Erythromycin",A. baumannii; [16],2 µg/mL
same,"Antibiotic MIC, Linezolid",A. baumannii; [16],16 µg/mL
same,"Antibiotic MIC, Vancomycin",A. baumannii; [16],32 µg/mL
same,"Antibiotic MIC, Erythromycin",A. baumannii; [17],1 µg/mL
same,"Antibiotic MIC, Linezolid",A. baumannii; [17],16 µg/mL
same,"Antibiotic MIC, Vancomycin",A. baumannii; [17],16 µg/mL
same,"Antibiotic MIC, Erythromycin",A. baumannii; [18],0.25 µg/mL
same,"Antibiotic MIC, Linezolid",A. baumannii; [18],2 µg/mL
same,"Antibiotic MIC, Vancomycin",A. baumannii; [18],8 µg/mL
same,"Antibiotic MIC, Erythromycin",A. baumannii; [19],0 µg/mL
same,"Antibiotic MIC, Linezolid",A. baumannii; [19],0 µg/mL
same,"Antibiotic MIC, Vancomycin",A. baumannii; [19],0 µg/mL
same,"Antibiotic MIC, Erythromycin",A. baumannii; [20],0 µg/mL
same,"Antibiotic MIC, Linezolid",A. baumannii; [20],0 µg/mL
same,"Antibiotic MIC, Vancomycin",A. baumannii; [20],0 µg/mL
same,Minimal inhibitory concentration MIC,MRSA 3126,>128 µg/mL
same,Minimal inhibitory concentration MIC,MRSA 3114,>128 µg/mL
same,Synergistic effect of antibacterial activity with existing antibiotics compared with PapMA-1,E. coli [3]; E. coli and MDREC1229,level similar to that of the PapMA-1 peptide
same,"Antibiotic MIC, Erythromycin",E. coli [3]; erythromycin combined with peptide at 1 μg/ml,64 µg/mL
same,"Antibiotic MIC, Erythromycin",E. coli [3]; erythromycin combined with peptide at 2 μg/ml,32 µg/mL
same,"Antibiotic MIC, Erythromycin",E. coli [3]; erythromycin combined with peptide at 4 μg/ml,8 µg/mL
same,"Antibiotic MIC, Erythromycin",E. coli [3]; erythromycin combined with peptide at 6 μg/ml,2 µg/mL
same,"Antibiotic MIC, Erythromycin",E. coli [3]; erythromycin combined with peptide at 8 μg/ml,1 µg/mL
same,"Antibiotic MIC, Erythromycin",E. coli [3]; erythromycin combined with peptide at 16 μg/ml,0.25 µg/mL
same,"Antibiotic MIC, Erythromycin",E. coli [3]; erythromycin combined with peptide at 32 μg/ml,0 µg/mL
same,"Antibiotic MIC, Erythromycin",E. coli [3]; erythromycin combined with peptide at 64 μg/ml,0 µg/mL
same,"Antibiotic MIC, Linezolid",E. coli [3]; linezolid combined with peptide at 1 μg/ml,>128 µg/mL
same,"Antibiotic MIC, Linezolid",E. coli [3]; linezolid combined with peptide at 2 μg/ml,128 µg/mL
same,"Antibiotic MIC, Linezolid",E. coli [3]; linezolid combined with peptide at 4 μg/ml,64 µg/mL
same,"Antibiotic MIC, Linezolid",E. coli [3]; linezolid combined with peptide at 6 μg/ml,32 µg/mL
same,"Antibiotic MIC, Linezolid",E. coli [3]; linezolid combined with peptide at 8 μg/ml,16 µg/mL
same,"Antibiotic MIC, Linezolid",E. coli [3]; linezolid combined with peptide at 16 μg/ml,8 µg/mL
same,"Antibiotic MIC, Linezolid",E. coli [3]; linezolid combined with peptide at 32 μg/ml,0 µg/mL
same,"Antibiotic MIC, Linezolid",E. coli [3]; linezolid combined with peptide at 64 μg/ml,0 µg/mL
same,"Antibiotic MIC, Vancomycin",E. coli [3]; vancomycin combined with peptide at 1 μg/ml,>128 µg/mL
same,"Antibiotic MIC, Vancomycin",E. coli [3]; vancomycin combined with peptide at 2 μg/ml,>128 µg/mL
same,"Antibiotic MIC, Vancomycin",E. coli [3]; vancomycin combined with peptide at 4 μg/ml,>128 µg/mL
same,"Antibiotic MIC, Vancomycin",E. coli [3]; vancomycin combined with peptide at 6 μg/ml,64 µg/mL
same,"Antibiotic MIC, Vancomycin",E. coli [3]; vancomycin combined with peptide at 8 μg/ml,32 µg/mL
same,"Antibiotic MIC, Vancomycin",E. coli [3]; vancomycin combined with peptide at 16 μg/ml,8 µg/mL
same,"Antibiotic MIC, Vancomycin",E. coli [3]; vancomycin combined with peptide at 32 μg/ml,0 µg/mL
same,"Antibiotic MIC, Vancomycin",E. coli [3]; vancomycin combined with peptide at 64 μg/ml,0 µg/mL
same,Minimal inhibitory concentration MIC,S. epidermidis,>128 µg/mL
same,"Antibiotic MIC, Erythromycin",MDREC 1229 [4]; [5],128 µg/mL
same,"Antibiotic MIC, Linezolid",MDREC 1229 [4]; [5],>128 µg/mL
same,"Antibiotic MIC, Vancomycin",MDREC 1229 [4]; [5],>128 µg/mL
same,"Antibiotic MIC, Erythromycin",MDREC 1229 [4]; [6],64 µg/mL
same,"Antibiotic MIC, Linezolid",MDREC 1229 [4]; [6],>128 µg/mL
same,"Antibiotic MIC, Vancomycin",MDREC 1229 [4]; [6],>128 µg/mL
same,"Antibiotic MIC, Erythromycin",MDREC 1229 [4]; [7],32 µg/mL
same,"Antibiotic MIC, Linezolid",MDREC 1229 [4]; [7],128 µg/mL
same,"Antibiotic MIC, Vancomycin",MDREC 1229 [4]; [7],>128 µg/mL
same,"Antibiotic MIC, Erythromycin",MDREC 1229 [4]; [8],8 µg/mL
same,"Antibiotic MIC, Linezolid",MDREC 1229 [4]; [8],64 µg/mL
same,"Antibiotic MIC, Vancomycin",MDREC 1229 [4]; [8],>128 µg/mL
same,"Antibiotic MIC, Erythromycin",MDREC 1229 [4]; [9],4 µg/mL
same,"Antibiotic MIC, Linezolid",MDREC 1229 [4]; [9],32 µg/mL
same,"Antibiotic MIC, Vancomycin",MDREC 1229 [4]; [9],128 µg/mL
same,"Antibiotic MIC, Erythromycin",MDREC 1229 [4]; [10],2 µg/mL
same,"Antibiotic MIC, Linezolid",MDREC 1229 [4]; [10],16 µg/mL
same,"Antibiotic MIC, Vancomycin",MDREC 1229 [4]; [10],16 µg/mL
same,"Antibiotic MIC, Erythromycin",MDREC 1229 [4]; [11],0 µg/mL
same,"Antibiotic MIC, Linezolid",MDREC 1229 [4]; [11],0 µg/mL
same,"Antibiotic MIC, Vancomycin",MDREC 1229 [4]; [11],0 µg/mL
same,"Antibiotic MIC, Erythromycin",MDREC 1229 [4]; [12],0 µg/mL
same,"Antibiotic MIC, Linezolid",MDREC 1229 [4]; [12],0 µg/mL
same,"Antibiotic MIC, Vancomycin",MDREC 1229 [4]; [12],0 µg/mL
same,Minimal inhibitory concentration MIC,P. aeruginosa,32 µg/mL
